# Experimental data published in patent publication US11685761B2, “Cyclic di-nucleotide compounds as sting agonists” (Merck Sharp & Dohme Corp., priority 2017, dated 2023).
# Read-outs that look alike come from different tables or passages of the source.
# Tests used:
# [1] = tested on: IFN-β secretion from THP1 cells; assay: IFN-β secretion in THP1 cell culture (5 h); format: cell-based, human; conditions: for activation at 30 µM: Homo sapiens, read-out: % Effect at 30 μM relative to 2′3′-cGAMP
# Method: The ability of compounds to stimulate the secretion of interferon-beta from THP1 cells was measured using a human IFN-β AlphaLISA kit (Perkin Elmer, Cat. No. AL265F). The basic protocol is as follows:
# The cell viability and count was ascertained using a Beckman Coulter V-Cell XR cell counter. The cell suspension was centrifuged at 200×g for 5 min at RT. Cells were resuspended to a density of 0.8×10^6/mL in 37° C. assay medium. Subsequent liquid transfers were performed using either a Matrix electronic multichannel pipette or an Agilent Bravo Automated Liquid Handling Platform.
# The assay was started by dispensing 40 μL of the previously prepared cell suspension into the wells of the plate containing compounds. After 5 h incubation at 37° C., 5% CO2 in a humidified atmosphere, the plate of cells and compounds was centrifuged at 200×g for 5 min at RT. […] To these supernatant-containing wells was added 10 μL of 5× Anti-Analyte Acceptor beads (50 μg/mL of AlphaLISA HiBlock Buffer) and incubated for 30 min at RT while shaking on an orbital plate shaker. To each well was added 10 μL of 5× Biotinylated Antibody Anti-analyte (5 nM in AlphaLISA HiBlock Buffer) and incubated on an orbital plate shaker for 60 min at RT or overnight at 4° C. To each well was added 25 μL of 2× SA-Donor beads (80 μg/mL in AlphaLISA HiBlock Buffer) and incubated for 30-45 min at RT in the dark while shaking on an orbital plate shaker. The plate was then read on a Perkin Elmer Envision (λex680 nm, λem=570 nm). The percent effect of the AlphaLISA signal at each compound concentration was calculated based on 30 uM cGAMP positive controls and 0.3% DMSO negative controls. The plot of percent effect versus the log of compound concentration was fit with a 4-parameter concentration response equation to calculate EC50 values.
# Compounds of the disclosure were evaluated for IFN-β secretion in THP1 cell culture as described above.
# full-length HAQ STING = molecular target: T1, full-length HAQ STING (Homo sapiens, UniProt Q86WV6, G230A/H232R/R293Q/R71H); assay: 3H-cGAMP filtration binding assay (HAQ STING); conditions: competition with tritiated cGAMP ligand; T. ni cell membranes overexpressing full-length HAQ STING
# T1 construct: made in house; host or cells: Trichoplusia ni (Hi-Five) insect cells, baculovirus generated in Sf21; crude membranes
# Excerpt: The ability of compounds to bind STING is quantified by the ability to compete with tritiated cGAMP ligand for human STING receptor membrane using a radioactive filter-binding assay. The binding assay employs STING receptor obtained from Hi-Five cell membranes overexpressing full-length HAQ STING prepared in-house and tritiated cGAMP ligand also purified in-house.
# The ability of compounds to bind STING is quantified by their ability to compete with tritiated cGAMP ligand for human STING receptor membrane using a radioactive filter-binding assay. The binding assay employs STING receptor obtained from Trichoplusia ni cell membranes (T. ni; Expression Systems, cat #94-002F, www.expressionsystems.com) overexpressing full-length HAQ STING and tritiated cGAMP ligand.
# The basic HAQ STING filtration assay protocol is as follows:
# The compounds were serially titrated by the Hamilton STARPlus CORE in a 96-well plate (Greiner, #651201) using a 1:3 ten-point dose response format. […] 148 uL of prepared membrane was then manually added to each well of a 96-well deep-well polypropylene plate (Fisher Scientific, #12-566-121). Following membrane addition, 2 uL of either titrated test compound, DMSO control (Sigma #276855), or cold cGAMP control was added to the appropriate wells using a BIOMEK FX. Compound and membrane then preincubated for 60 min at RT to allow compound binding to equilibrate. Following equilibration, 8 nM of [^3H] c-GAMP ligand was prepared by diluting into assay buffer, and 50 uL of this working stock was then manually added to each well of the assay plate. Plates were then incubated at RT for 60 min, and the contents of each assay plate were then filtered through a 96-well GF/B filter plate (PerkinElmer, #6005250) using a TOMTEC MACH III Cell Harvester equipped with 20 mM HEPES buffer (Fisher Scientific, #BP299500). The filter plates were then dried at 55° C. for 30 min using a pressurized oven before 30 uL of ULTIMA GOLD F scintillate was added to each well. Tritium levels for each reaction well were then measured using a PerkinElmer TopCount plate reader.
# After normalization to controls, the percent activity for each compound concentration was calculated by measuring the amount of remaining radioactivity. The plot of percent activity versus the log of compound concentration was fit with a 4-parameter dose response equation to calculate EC50 values.
# [2] = THP-1, 5 h, THP1 cells, 5 h incubation, compound at 30 μM, 30 uM cGAMP = 100%
# [3] = THP1 cells, 5 h incubation, compound at 30 μM, 30 uM cGAMP = 100%
# T1 sequence (Q86WV6 with tags, fused parts or gaps R71H/G230A/H232R/R293Q): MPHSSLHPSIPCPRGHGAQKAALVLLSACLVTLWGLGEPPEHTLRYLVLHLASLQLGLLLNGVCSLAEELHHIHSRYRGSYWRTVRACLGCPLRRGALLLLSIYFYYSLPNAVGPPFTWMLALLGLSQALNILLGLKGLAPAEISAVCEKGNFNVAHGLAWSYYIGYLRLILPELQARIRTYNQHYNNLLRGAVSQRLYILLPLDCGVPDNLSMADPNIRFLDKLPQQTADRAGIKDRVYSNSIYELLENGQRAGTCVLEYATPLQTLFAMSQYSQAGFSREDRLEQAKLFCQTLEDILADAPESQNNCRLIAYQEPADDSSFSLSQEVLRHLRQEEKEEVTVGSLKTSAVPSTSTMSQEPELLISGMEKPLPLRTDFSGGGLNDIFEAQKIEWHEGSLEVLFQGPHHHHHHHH
Compound,"activation at 30 µM [1, 2] [%]",EC50 (full-length HAQ STING) [nM],"% Effect at 30 μM relative to 2′3′-cGAMP [1, 3] [%]",% Effect at 30 μM relative to 2′3′-cGAMP [1] [%],"activation at 30 µM ([1]; THP-1, THP1 cells, 5 h incubation, compound at 30 μM, 30 uM cGAMP = 100%) [%]"
"Nc1ncnn2c([C@H]3C[C@@H]4O[P@](=O)(S)OC[C@H]5O[C@@H](n6ccc(=O)n7ccnc67)[C@H](O[P@](=O)(S)OC[C@H]4O3)[C@@H]5O)cnc12 (single isomer, unassigned) [Example 8]",128,23,,,
"Nc1ncnn2c([C@H]3C[C@@H]4O[P@](=O)(S)OC[C@H]5O[C@@H](n6ccc(=O)n7ccnc67)[C@H](O[P@@](=O)(S)OC[C@H]4O3)[C@@H]5O)cnc12 (single isomer, unassigned) [Example 9]",80,23,,,
"Nc1ncnc2c1ncn2[C@@H]1S[C@@H]2CO[P@@](=O)(S)O[C@@H]3[C@H](O)[C@@H](CO[P@@](=O)(S)O[C@H]2[C@H]1O)O[C@H]3n1ccc(=O)n2ccnc12 (single isomer, unassigned) [Example 10]",183,3,,,
"Nc1ncnc2c1ncn2[C@@H]1S[C@@H]2CO[P@](=O)(S)O[C@@H]3[C@H](O)[C@@H](CO[P@@](=O)(S)O[C@H]2[C@H]1O)O[C@H]3n1ccc(=O)n2ccnc12 (single isomer, unassigned) [Example 11]",5,1740,,,
"Nc1ncnc2c1ncn2[C@@H]1S[C@@H]2CO[P@@](=O)(S)O[C@@H]3[C@H](O)[C@@H](CO[P@](=O)(S)O[C@H]2[C@H]1O)O[C@H]3n1ccc(=O)n2ccnc12 (single isomer, unassigned) [Example 12]",123,156,,,
"Nc1ncnc2c1nnn2[C@@H]1O[C@@H]2COP(=O)(S)O[C@@H]3[C@H](F)[C@@H](COP(=O)(S)O[C@H]2[C@@H]1F)O[C@H]3n1cnc2c(=O)n3cc[nH]c3nc21 (single isomer, unassigned) [Example 23]",,28,,,
"Nc1ncnc2c1nnn2[C@@H]1O[C@@H]2COP(=O)(S)O[C@@H]3[C@H](F)[C@@H](COP(=O)(S)O[C@H]2[C@@H]1F)O[C@H]3n1cnc2c(=O)n3cc[nH]c3nc21 (single isomer, unassigned) [Example 24]",,411,,,
"Nc1ncnc2c1ncn2[C@@H]1O[C@@]23CO[C@@H]1[C@@H]2OP(=O)(S)OC[C@H]1O[C@@H](n2cnc4c(=O)n5cc[nH]c5nc42)[C@H](OP(=O)(S)OC3)[C@@H]1F (single isomer, unassigned) [Example 25]",,1,131,,
"Nc1ncnc2c1ncn2[C@@H]1O[C@@]23CO[C@@H]1[C@@H]2OP(=O)(S)OC[C@H]1O[C@@H](n2cnc4c(=O)n5cc[nH]c5nc42)[C@H](OP(=O)(S)OC3)[C@@H]1F (single isomer, unassigned) [Example 26]",,19,153,,
"Nc1ncnc2c1ncn2[C@@H]1O[C@@]23CO[C@@H]1[C@@H]2OP(=O)(S)OC[C@H]1O[C@@H](n2cnc4c(=O)n5cc[nH]c5nc42)[C@H](OP(=O)(S)OC3)[C@@H]1F (single isomer, unassigned) [Example 27]",,61,143,,
"Nc1nc2c(ncn2[C@@H]2O[C@@H]3COP(=O)(S)O[C@H]4[C@@H](O)[C@H](n5cnc6c(=O)[nH]c7nccn7c65)O[C@@H]4COP(=O)(S)O[C@@H]2[C@@H]3F)c(=O)[nH]1 (single isomer, unassigned) [Example 32]",,14,141,,
"Nc1nc2c(ncn2[C@@H]2O[C@@H]3COP(=O)(S)O[C@H]4[C@@H](O)[C@H](n5cnc6c(=O)[nH]c7nccn7c65)O[C@@H]4COP(=O)(S)O[C@@H]2[C@@H]3F)c(=O)[nH]1 (single isomer, unassigned) [Example 33]",,90,83,,
"Nc1nc2c(ncn2[C@@H]2O[C@@H]3COP(=O)(S)O[C@H]4C[C@H](n5ccc6c(=O)[nH]cnc65)O[C@@H]4COP(=O)(S)O[C@@H]2[C@@H]3F)c(=O)[nH]1 (single isomer, unassigned) [Example 35]",,11,,98,
"Nc1nc2c(ncn2[C@@H]2O[C@@H]3COP(=O)(S)O[C@H]4C[C@H](n5ccc6c(=O)[nH]cnc65)O[C@@H]4COP(=O)(S)O[C@@H]2[C@@H]3F)c(=O)[nH]1 (single isomer, unassigned) [Example 36]",94,2,,,
"Nc1nc2c(ncn2[C@@H]2O[C@@H]3COP(=O)(S)O[C@H]4C[C@H](n5ccc6c(=O)[nH]cnc65)O[C@@H]4COP(=O)(S)O[C@@H]2C3)c(=O)[nH]1 (single isomer, unassigned) [Example 37]",102,49,,,
"Nc1nc2c(ncn2[C@@H]2O[C@@H]3COP(=O)(S)O[C@H]4[C@H](F)[C@H](n5ccc6c(=O)[nH]cnc65)O[C@@H]4COP(=O)(S)O[C@@H]2[C@@H]3F)c(=O)[nH]1 (single isomer, unassigned) [Example 39]",166,1,,,
"Nc1ncnc2c1ncn2[C@@H]1O[C@@H]2COP(=O)(S)O[C@H]3[C@H](F)[C@H](n4ccc5c(=O)[nH]cnc54)O[C@@H]3COP(=O)(S)O[C@@H]1C2 (single isomer, unassigned) [Example 47]",,460,13,,
"Nc1ncnc2c1ncn2[C@@H]1O[C@@H]2COP(=O)(S)O[C@@H]3[C@@H](F)[C@@H](COP(=O)(S)O[C@H]2[C@@H]1F)O[C@H]3n1cnc2c(=O)[nH]ccc21 (stereo partly drawn) [Example 21, 1-[(5R,7R,8S,12aR,14R,15S,15aR,16S)-14-(6-amino-9H-purin-9-yl)-15,16-difluoro-2,10-dioxido-2,10-disulfanyloctahydro-12H-5,8-methanofuro[3,2-1][1,3,6,9,11,2,10]pentaoxadiphosphacyclotetradecin-7-yl]-1,5-dihydro-4H-imidazo[4,5-c]pyridin-4-one]",,,,,143
"Nc1ncnc2c1ccn2[C@@H]1O[C@@H]2COP(=O)(S)O[C@@H]3C[C@@H](COP(=O)(S)O[C@H]2[C@@H]1F)O[C@H]3n1cnc2c(=O)[nH]ccc21 (stereo partly drawn) [Example 22, 1-[(5S,7R,8R,12aR,14R,15S,15aR)-14-(4-amino-7H-pyrrolo[2,3-d]pyrimidin-7-yl)-15-fluoro-2,10-dioxido-2,10-disulfanyloctahydro-12H-5,8-methanofuro[3,2-l][1,3,6,9,11,2,10]pentaoxadiphosphacyclotetradecin-7-yl]-1,5-dihydro-4H-imidazo[4,5-c]pyridin-4-one]",100,,,,
